The values below come from patent US11566007B2, “Ras inhibitors” (Revolution Medicines, Inc., priority 2019, dated 2023).

Molecules are shown by their SMILES.

Format in all cases: biochemical
Test [1] concerns the target KRAS WT (Homo sapiens (Human), UniProt P01116+P62937). Kind of test: Ras-Raf (BRAF RBD) disruption / FRET / MOA assay, KRAS WT. The note with it: read-out: IC50* KRAS WT FRET data. In short, it runs like this:
(§1)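 Compound-driven ternary complex of nucleotide-loaded Ras with cyclophilin A, disrupting BRAF RBD binding. 10-point 3-fold dilution from 30 μM final, 3 h at 25° C, then anti-His Eu-W1024 (10 nM) and anti-GST allophycocyanin (50 nM) for 1.5 h. IC50 from TR-FRET ratio decrease versus DMSO.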

The target of test [2] is KRAS Q61H (Homo sapiens (Human), UniProt P01116+P62937, Q61H). Kind of test: Ras-Raf (BRAF RBD) disruption / FRET / MOA assay, KRAS Q61H. Conditions: Ras-Raf disruption/FRET/MOA assay; class symbols; read-out: KRAS Q61H FRET data IC50. An outline of the steps:
(§2)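 Compounds (30 μM top final, 10-point 3-fold dilutions) incubated 3 h at 25° C with nucleotide-loaded Ras, cyclophilin A and BRAF RBD. Detection with 10 nM anti-His Eu-W1024 and 50 nM anti-GST allophycocyanin over another 1.5 h. Lowered TR-FRET ratio relative to DMSO wells gives IC50.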

Test [3] deals with K-Ras G12C (Homo sapiens (Human), UniProt P01116+P62937, G12C). Nature of the test: Ras-Raf (BRAF RBD) disruption / FRET / MOA assay, KRAS G12C. The note with it: KRAS G12C; Ras-Raf disruption/FRET/MOA assay; read-out: IC50* KRAS G12C FRET data. An outline of the steps: as §1
Sequence of K-Ras G12C (P01116-2 other isoform, or with tags, fused parts or gaps G12C): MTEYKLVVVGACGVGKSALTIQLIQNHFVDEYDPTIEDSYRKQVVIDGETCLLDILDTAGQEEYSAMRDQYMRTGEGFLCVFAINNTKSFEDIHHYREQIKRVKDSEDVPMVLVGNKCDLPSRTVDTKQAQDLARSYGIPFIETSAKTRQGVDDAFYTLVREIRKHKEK
Sequence of K-Ras G12C (P62937 whole entry): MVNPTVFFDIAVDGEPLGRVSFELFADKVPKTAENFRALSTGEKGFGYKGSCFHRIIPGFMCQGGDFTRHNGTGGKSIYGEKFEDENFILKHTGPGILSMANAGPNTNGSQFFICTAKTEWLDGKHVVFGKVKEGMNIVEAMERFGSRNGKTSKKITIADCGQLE
The target of test [4] is KRAS G13D (Homo sapiens (Human), UniProt P01116+P62937, G13D). Nature of the test: Ras-Raf (BRAF RBD) disruption / FRET / MOA assay, KRAS G13D. Conditions: read-out: IC50* KRAS G13D FRET data. In short, it runs like this: as §1
Sequence of KRAS G13D (P01116-2 other isoform, or with tags, fused parts or gaps G13D): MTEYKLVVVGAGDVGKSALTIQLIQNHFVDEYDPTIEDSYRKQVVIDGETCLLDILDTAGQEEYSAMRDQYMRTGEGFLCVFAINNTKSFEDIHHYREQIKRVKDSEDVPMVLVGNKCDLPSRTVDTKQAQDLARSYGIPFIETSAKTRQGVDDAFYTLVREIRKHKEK
Sequence of KRAS G13D (P62937 whole entry): as the sequence (P62937 whole entry) above
In test [5] the target is KRAS G12D (Homo sapiens (Human), UniProt P01116+P62937, G12D). Nature of the test: Ras-Raf (BRAF RBD) disruption / FRET / MOA assay, KRAS G12D. Conditions: Ras-Raf disruption/FRET/MOA assay; class symbols; read-out: KRAS G12D FRET data IC50. In short, it runs like this:
as §1

Test [6] deals with NRAS Q61K (Homo sapiens (Human), UniProt P01111+P62937, Q61K). Kind of test: Ras-Raf (BRAF RBD) disruption / FRET / MOA assay, NRAS Q61K. Conditions: NRAS Q61K; Ras-Raf disruption/FRET/MOA assay; read-out: IC50* NRAS Q61K FRET data. An outline of the steps:
as §2

Test [7] has as its target NRAS Q61R (Homo sapiens (Human), UniProt P01111+P62937, Q61R). Nature of the test: Ras-Raf (BRAF RBD) disruption / FRET / MOA assay, NRAS Q61R. The note with it: NRAS Q61R; Ras-Raf disruption/FRET/MOA assay; read-out: IC50* NRAS Q61R FRET data. In short, it runs like this:
as §2

Sequence of KRAS WT (P01116-2 other isoform, or with tags, fused parts or gaps): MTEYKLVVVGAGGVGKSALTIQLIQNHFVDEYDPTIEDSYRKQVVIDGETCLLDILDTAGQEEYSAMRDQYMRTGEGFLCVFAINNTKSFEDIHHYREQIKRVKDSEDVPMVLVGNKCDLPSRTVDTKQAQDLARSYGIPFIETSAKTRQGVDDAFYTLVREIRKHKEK
Sequence of KRAS WT (P62937 whole entry): as the sequence (P62937 whole entry) above
Sequence of NRAS Q61K (P01111 whole entry Q61K): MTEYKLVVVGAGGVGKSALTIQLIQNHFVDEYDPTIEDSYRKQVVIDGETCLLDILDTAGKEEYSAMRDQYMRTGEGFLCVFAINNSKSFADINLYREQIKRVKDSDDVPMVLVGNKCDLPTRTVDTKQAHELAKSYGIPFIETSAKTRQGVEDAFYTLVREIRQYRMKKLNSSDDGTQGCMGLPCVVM
Sequence of NRAS Q61K (P62937 whole entry): as the sequence (P62937 whole entry) above
Sequence of KRAS Q61H (P01116-2 other isoform, or with tags, fused parts or gaps Q61H): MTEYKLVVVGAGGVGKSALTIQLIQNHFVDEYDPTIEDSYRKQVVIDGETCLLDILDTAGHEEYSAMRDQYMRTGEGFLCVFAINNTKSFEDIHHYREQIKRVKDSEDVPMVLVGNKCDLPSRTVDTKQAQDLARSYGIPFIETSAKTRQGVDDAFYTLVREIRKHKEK
Sequence of KRAS Q61H (P62937 whole entry): as the sequence (P62937 whole entry) above
Sequence of NRAS Q61R (P01111 whole entry Q61R): as the sequence (P01111 whole entry Q61K) above, with K61R counted along it
Sequence of NRAS Q61R (P62937 whole entry): as the sequence (P62937 whole entry) above
Sequence of KRAS G12D (P01116-2 other isoform, or with tags, fused parts or gaps G12D): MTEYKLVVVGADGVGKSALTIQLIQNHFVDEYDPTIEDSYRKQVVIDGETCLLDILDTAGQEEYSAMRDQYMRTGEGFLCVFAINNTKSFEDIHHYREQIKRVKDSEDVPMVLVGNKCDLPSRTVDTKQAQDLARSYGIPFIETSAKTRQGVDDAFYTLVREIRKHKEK
Sequence of KRAS G12D (P62937 whole entry): as the sequence (P62937 whole entry) above

With `C=CC(=O)N(C)[C@H]1C[C@H](N(C)C(=O)N(C)[C@H](C(=O)N[C@H]2Cc3nc(cs3)-c3ccc4c(c3)c(c(-c3cccnc3[C@H](C)OC)n4CC)CC(C)(C)COC(=O)[C@@H]3CCCN(N3)C2=O)C(C)C)C1` (atropisomer, axis not shown) [Example A712], the IC50 (as a rule, the point on the concentration scale where inhibition reaches its midpoint) fell in the range of 10 to 100 nM in test [1]; 10 to 100 nM in test [2]; 10 to 100 nM in test [3]; 100 to 1000 nM in test [4]; 100 to 1000 nM in test [5]; 10 to 100 nM in test [6]. Also, the IC50 in test [7] lay in the range of 10 to 100 nM.

Take `CC#CC(=O)N1CCC(C(=O)N(C)[C@H](C(=O)N[C@H]2Cc3nc(cs3)-c3ccc4c(c3)c(c(-c3cccnc3[C@H](C)OC)n4CC)CC(C)(C)COC(=O)[C@@H]3CCCN(N3)C2=O)C(C)C)C1` (atropisomer, axis not shown) [Example A168]: the IC50 in test [1] was 1000 to 10000 nM; in test [2], 1000 to 10000 nM; in test [3], 100 to 1000 nM; in test [4] it was > 10000 nM; in test [5], > 10000 nM; in test [6], 1000 to 10000 nM. Besides, in test [7], the IC50 lay within 1000 to 10000 nM.

As to `CCn1c(-c2cccnc2[C@H](C)OC)c2c3cc(ccc31)-c1csc(n1)C[C@H](NC(=O)[C@H](C(C)C)N(C)C(=O)N1CCC3(CC1)CN(C(=O)/C=C/C(F)F)C3)C(=O)N1CCC[C@H](N1)C(=O)OCC(C)(C)C2` (atropisomer, axis not shown) [Example A683], the IC50 lay within 100 to 1000 nM in test [1]; 10 to 100 nM in test [2]; 10 to 100 nM in test [3]; 100 to 1000 nM in test [4]; 100 to 1000 nM in test [5]; 10 to 100 nM in test [6]. Further, the IC50 in test [7] was in the range of 100 to 1000 nM.

Take `C=CC(=O)N(C)CCN1CCN(C(=O)N(C)[C@H](C(=O)N[C@H]2Cc3nc(cs3)-c3ccc4c(c3)c(c(-c3cccnc3[C@H](C)OC)n4CC)CC(C)(C)COC(=O)[C@@H]3CCCN(N3)C2=O)C(C)C)CC1` (atropisomer, axis not shown) [Example A630]: the IC50 in test [1] was 100 to 1000 nM; in test [2], 100 to 1000 nM; in test [3], 100 to 1000 nM; in test [4] it was 1000 to 10000 nM; in test [5] it was 1000 to 10000 nM; in test [6] it was 100 to 1000 nM. The IC50 in test [7] was 100 to 1000 nM.

Turning to `C=CC(=O)N1CC[C@H](N(C)C(=O)N(C)[C@H](C(=O)N[C@H]2Cc3nc(cs3)-c3ccc4c(c3)c(c(-c3cccnc3[C@H](C)OC)n4CC)CC(C)(C)COC(=O)[C@@H]3CCCN(N3)C2=O)C(C)C)C1` (atropisomer, axis not shown) [Example A728], the IC50 in test [1] was 100 to 1000 nM; in test [2] it was 100 to 1000 nM; in test [3] it was 100 to 1000 nM; in test [4] it was 1000 to 10000 nM; in test [5], 1000 to 10000 nM; in test [6], 100 to 1000 nM. For the same compound, in test [7], the IC50 fell in the range of 100 to 1000 nM.

For `CO[C@@H](C)c1ncccc1-c1c2c3cc(ccc3n1CC(F)(F)F)-c1csc(n1)C[C@H](NC(=O)[C@H](C(C)C)N(C)C(=O)N1CCN(C(=O)/C=C/CN(C)C)C3(CC3)C1)C(=O)N1CCC[C@H](N1)C(=O)OCC(C)(C)C2` (atropisomer, axis not shown) [Example A664], the IC50 in test [1], in test [2], in test [3], in test [4], in test [5] and in test [6] was 10 to 100 nM throughout. Also, the IC50 in test [7] is 10 to 100 nM.

Take `C=CC(=O)N(C)C1CN(C(=O)N(C)[C@H](C(=O)N[C@H]2Cc3nc(cs3)-c3ccc4c(c3)c(c(-c3cccnc3[C@H](C)OC)n4CC)CC(C)(C)COC(=O)[C@@H]3CCCN(N3)C2=O)C(C)C)C1` (atropisomer, axis not shown) [Example A463]: the IC50 in test [1] is 100 to 1000 nM; in test [2], 10 to 100 nM; in test [3], 10 to 100 nM; in test [4], 100 to 1000 nM; in test [5], 1000 to 10000 nM; in test [6], 10 to 100 nM. The IC50 in test [7] was in the range of 100 to 1000 nM.

For `CCn1c(-c2cccnc2[C@H](C)OC)c2c3cc(ccc31)-c1cccc(c1)C[C@H](NC(=O)[C@H](C(C)C)N(C)C(=O)N1CCC13CN(C(=O)C#CC(C)(C)N(C)C)C3)C(=O)N1CCC[C@H](N1)C(=O)OCC(C)(C)C2` [Example A672], the IC50 is 100 to 1000 nM in test [1]; 10 to 100 nM in test [2]; 10 to 100 nM in test [3]; 100 to 1000 nM in test [4]; 1000 to 10000 nM in test [5]; 100 to 1000 nM in test [6]. The IC50 in test [7] is 100 to 1000 nM.

`C=CC(=O)NC[C@H]1CCN1C(=O)N(C)[C@H](C(=O)N[C@H]1Cc2nc(cs2)-c2ccc3c(c2)c(c(-c2cccnc2[C@H](C)OC)n3CC)CC(C)(C)COC(=O)[C@@H]2CCCN(N2)C1=O)C(C)C` (atropisomer, axis not shown) [Example A356]: the IC50 in test [1] lay within 100 to 1000 nM; in test [2], 100 to 1000 nM; in test [3], 100 to 1000 nM; in test [4], 1000 to 10000 nM; in test [5], 1000 to 10000 nM; in test [6], 100 to 1000 nM. Moreover, the IC50 in test [7] was in the range of 100 to 1000 nM.

As for `C=CC(=O)N1CCO[C@H]2CN(C(=O)N(C)[C@H](C(=O)N[C@H]3Cc4coc(n4)-c4ccc5c(c4)c(c(-c4cccnc4[C@H](C)OC)n5CC(F)(F)F)CC(C)(C)COC(=O)[C@@H]4CCCN(N4)C3=O)C(C)C)C[C@H]21` (atropisomer, axis not shown) [Example A574], the IC50 is 1000 to 10000 nM in test [1]; 100 to 1000 nM in test [2]; 100 to 1000 nM in test [3]; 1000 to 10000 nM in test [4]; > 10000 nM in test [5]; 100 to 1000 nM in test [6]. The IC50 in test [7] lay in the range of 1000 to 10000 nM.

As for `C=CC(=O)N1CC2(C1)OCCCN2C(=O)N(C)[C@H](C(=O)N[C@H]1Cc2nc(cs2)-c2ccc3c(c2)c(c(-c2cccnc2[C@H](C)OC)n3CC)CC(C)(C)COC(=O)[C@@H]2CCCN(N2)C1=O)C(C)C` (atropisomer, axis not shown) [Example A735, 2-acryloyl-N-((2S)-1-(((6^3S,4S,Z)-1^1-ethyl-1^2-(2-((S)-1-methoxyethyl)pyridin-3-yl)-10,10-dimethyl-5,7-dioxo-6^1,6^2,6^3,6^4,6^5,6^6-hexahydro-1^1H-8-oxa-2(4,2)-thiazola-1(5,3)-indola-6(1,3)-pyridazinacycloundecaphane-4-yl)amino)-3-methyl-1-oxobutan-2-yl)-N-methyl-5-oxa-2,9-diazaspiro[3.5]nonane-9-carboxamide], the IC50 in test [1] was 1000 to 10000 nM; in test [2], 1000 to 10000 nM; in test [3] it was < 10 nM; in test [4] it was > 10000 nM; in test [5], > 10000 nM; in test [6] it was 1000 to 10000 nM. Also, the IC50 in test [7] is > 10000 nM.

As for `CCn1c(-c2cccnc2[C@H](C)OC)c2c3cc(ccc31)-c1csc(n1)C[C@H](NC(=O)CCOC1CN(C(=O)C#CC(C)(C)N(C)C)C1)C(=O)N1CCC[C@H](N1)C(=O)OCC(C)(C)C2` (atropisomer, axis not shown) [Example A427, 3-((1-(4-(dimethylamino)-4-methylpent-2-ynoyl)azetidin-3-yl)oxy)-N-((6^3S,4S,Z)-1^1-ethyl-1^2-(2-((S)-1-methoxyethyl)pyridin-3-yl)-10,10-dimethyl-5,7-dioxo-6^1,6^2,6^3,6^4,6^5,6^6-hexahydro-1^1H-8-oxa-2(4,2)-thiazola-1(5,3)-indola-6(1,3)-pyridazinacycloundecaphane-4-yl)propanamide], the IC50 in test [1] is 1000 to 10000 nM; in test [2], 1000 to 10000 nM; in test [3], < 10 nM; in test [4], 1000 to 10000 nM; in test [5], > 10000 nM; in test [6], 1000 to 10000 nM. Also, in test [7], the half-maximal inhibitory concentration (IC50) is > 10000 nM.

On to `C=CC(=O)N1CC(OC[C@H](C(=O)N[C@H]2Cc3cccc(c3)-c3ccc4c(c3)c(c(-c3cccnc3[C@H](C)OC)n4CC(F)(F)F)CC(C)(C)COC(=O)[C@@H]3CCCN(N3)C2=O)C(C)C)C1` (atropisomer, axis not shown) [Example A344], for which the IC50 in test [1] is 1000 to 10000 nM; in test [2], 100 to 1000 nM; in test [3] it was 10 to 100 nM; in test [4], 1000 to 10000 nM; in test [5], > 10000 nM; in test [6], 1000 to 10000 nM. For the same compound, the IC50 in test [7] was in the range of 1000 to 10000 nM.

As for `C=CC(=O)Nc1cnc(OC[C@H](C(=O)N[C@H]2Cc3cccc(c3)-c3ccc4c(c3)c(c(-c3cccnc3[C@H](C)OC)n4CC)CC(C)(C)COC(=O)[C@@H]3CCCN(N3)C2=O)C(C)C)n1C` (atropisomer, axis not shown) [Example A600], the IC50 in test [1] is 100 to 1000 nM; in test [2], 100 to 1000 nM; in test [3] it was < 10 nM; in test [4], 1000 to 10000 nM; in test [5] it was 1000 to 10000 nM; in test [6], 1000 to 10000 nM. In test [7], the IC50 is 1000 to 10000 nM.
